Data taken from ChEMBL document CHEMBL3108668, “Antitumor activity of jujuboside B and the underlying mechanism via induction of apoptosis and autophagy” (J Nat Prod, 2014).
Active and inactive are the calls of the source. The rule behind the calls is not given here.

Experiments:
AGS [1] = assay: Induction of apoptosis in human AGS cells assessed as increase in LC3-2 level at 50 uM after 24 hrs by Western blotting analysis in presence of bafilomycin A1; assay type: functional, cell-based
AGS [2] = assay: Induction of apoptosis in human AGS cells assessed as increase in FasL level at 100 uM after 24 hrs by Western blotting analysis in presence of bafilomycin A1; assay type: functional, cell-based
AGS [3] = assay: Induction of apoptosis in human AGS cells assessed as increase in pp38 level at 100 uM after 24 hrs by Western blotting analysis in presence of bafilomycin A1; assay type: functional, cell-based
AGS [4] = assay: Cell cycle arrest in human AGS cells assessed as accumulation at sub G1 phase at 100 uM after 24 hrs by propidium iodide staining-based flow cytometry in presence of bafilomycin A1; assay type: functional
HCT-116 [5] = assay: Induction of autophagy in human HCT116 cells assessed as increase in LC3-2 level at 50 uM after 24 hrs by Western blotting analysis; assay type: functional, cell-based
AGS [6] = assay: Induction of autophagy in human AGS cells assessed as increase in LC3-2 level at 50 uM after 24 hrs by Western blotting analysis; assay type: functional, cell-based
HCT-116 [7] = assay: Induction of autophagy in human HCT116 cells assessed as massive vacuole formation at 50 uM after 24 hrs by acridine orange staining-based fluorescence microscopy in presence of bafilomycin A1; assay type: functional, cell-based
HCT-116 [8] = assay: Induction of autophagy in human HCT116 cells assessed as massive vacuole formation at 50 uM after 24 hrs by acridine orange staining-based fluorescence microscopy; assay type: functional, cell-based
AGS [9] = assay: Induction of autophagy in human AGS cells assessed as massive vacuole formation at 50 uM after 24 hrs by acridine orange staining-based fluorescence microscopy in presence of bafilomycin A1; assay type: functional, cell-based
AGS [10] = assay: Induction of autophagy in human AGS cells assessed as massive vacuole formation at 50 uM after 24 hrs by fluorescence microscopy; assay type: functional, cell-based
AGS [11] = assay: Induction of apoptosis in human AGS cells assessed as reduction of caspase8 activation at 100 uM after 24 hrs by Western blotting analysis in presence of SB202190; assay type: functional, cell-based
AGS [12] = assay: Induction of apoptosis in human AGS cells assessed as decrease in pERK level at 25 to 150 uM after 24 hrs by Western blotting analysis; assay type: functional, cell-based
AGS [13] = assay: Induction of apoptosis in human AGS cells assessed as increase in pJNK level at 25 to 150 uM after 24 hrs by Western blotting analysis; assay type: functional, cell-based
AGS [14] = assay: Induction of apoptosis in human AGS cells assessed as increase in pp38 level at 25 to 150 uM after 24 hrs by Western blotting analysis; assay type: functional, cell-based
AGS [15] = assay: Induction of apoptosis in human AGS cells assessed as caspase-9 activation at 25 to 150 uM after 24 hrs by Western blotting analysis; assay type: functional, cell-based
AGS [16] = assay: Induction of apoptosis in human AGS cells assessed as procaspase-9 level at 25 to 150 uM after 24 hrs by Western blotting analysis; assay type: functional, cell-based
AGS [17] = assay: Induction of apoptosis in human AGS cells assessed as increase in FasL level at 25 to 150 uM after 24 hrs by Western blotting analysis; assay type: functional, cell-based
AGS [18] = assay: Induction of apoptosis in human AGS cells assessed as caspase-3 activation after 24 hrs by Western blotting analysis; assay type: functional, cell-based
HCT-116 [19] = assay: Antitumor activity against human HCT116 cells xenografted in BALB/c nude mouse assessed as reduction of Ki-67 expression at 40 mg/kg, ip administered 3 times a week for 5 weeks by immunohistochemical analysis; assay type: functional, organism-based; design: dose 40 mg/kg
Mus musculus = assay: Toxicity in BALB/c nude mouse xenografted with human HCT116 cells assessed as change in body weight at 40 mg/kg, ip administered 3 times a week for 5 weeks; assay type: organism-based, HCT-116; design: dose 40 mg/kg, route intraperitoneal; details: in vivo, 840 h
HCT-116 [20] = assay: Antitumor activity against human HCT116 cells xenografted in BALB/c nude mouse at 40 mg/kg, ip administered 3 times a week for 5 weeks relative to control; assay type: functional; details: route intraperitoneal
HCT-116 [21] = assay: Cell cycle arrest in human HCT116 cells assessed as accumulation at sub G1 phase after 24 hrs by propidium iodide staining-based flow cytometry; assay type: functional
HCT-116 [22] = assay: Induction of apoptosis in human HCT116 cells assessed as apoptotic cells after 24 hrs by annexin V-FITC/propidium iodide staining-based flow cytometry; assay type: functional, cell-based
AGS [23] = assay: Cell cycle arrest in human AGS cells assessed as accumulation at sub G1 phase at 200 uM after 24 hrs by propidium iodide staining-based flow cytometry; assay type: functional
AGS [24] = assay: Cell cycle arrest in human AGS cells assessed as accumulation at sub G1 phase at 100 uM after 24 hrs by propidium iodide staining-based flow cytometry; assay type: functional
AGS [25] = assay: Induction of apoptosis in human AGS cells assessed as apoptotic cells at 150 uM after 24 hrs by annexin V-FITC/propidium iodide staining-based flow cytometry; assay type: functional
AGS [26] = assay: Induction of apoptosis in human AGS cells assessed as apoptotic cells at 100 uM after 24 hrs by annexin V-FITC/propidium iodide staining-based flow cytometry; assay type: functional
HCT-116 [27] = assay: Induction of apoptosis in human HCT116 cells assessed as necrotic cells at 150 uM after 24 hrs by annexin V-FITC/propidium iodide staining-based flow cytometry (reference value: 0.68%); assay type: functional
HCT-116 [28] = assay: Induction of apoptosis in human HCT116 cells assessed as necrotic cells at 25 uM after 24 hrs by annexin V-FITC/propidium iodide staining-based flow cytometry (reference value: 0.68%); assay type: functional
HCT-116 [29] = assay: Induction of apoptosis in human HCT116 cells assessed as late apoptotic cells at 25 uM after 24 hrs by annexin V-FITC/propidium iodide staining-based flow cytometry (reference value: 2.71%); assay type: functional
HCT-116 [30] = assay: Induction of apoptosis in human HCT116 cells assessed as early apoptotic cells at 25 uM after 24 hrs by annexin V-FITC/propidium iodide staining-based flow cytometry (reference value: 3.61%); assay type: functional
AGS [31] = assay: Induction of apoptosis in human AGS cells assessed as necrotic cells at 100 uM after 24 hrs by annexin V-FITC/propidium iodide staining-based flow cytometry (reference value: 0.12%); assay type: functional
AGS [32] = assay: Induction of apoptosis in human AGS cells assessed as late apoptotic cells at 100 uM after 24 hrs by annexin V-FITC/propidium iodide staining-based flow cytometry (reference value: 7.3%); assay type: functional
HCT-116 [33] = assay: Induction of apoptosis in human HCT116 cells assessed as cell shrinkage at >100 uM after 24 hrs by acridine orange staining-based microscopy; assay type: functional
HCT-116 [34] = assay: Induction of apoptosis in human HCT116 cells assessed as cell rounding at >100 uM after 24 hrs by acridine orange staining-based microscopy; assay type: functional
AGS [35] = assay: Induction of apoptosis in human AGS cells assessed as formation of apoptotic bodies at >100 uM after 24 hrs by acridine orange staining-based microscopy; assay type: functional, cell-based
AGS [36] = assay: Induction of apoptosis in human AGS cells assessed as membrane blebbing at >100 uM after 24 hrs by acridine orange staining-based microscopy; assay type: functional, cell-based
HCT-116 [37] = assay: Cytotoxicity against human HCT116 cells after 24 hrs by MTT assay; assay type: functional, cell-based
AGS [38] = assay: Cytotoxicity against human AGS cells after 24 hrs by MTT assay; assay type: functional, cell-based

In the case of `CC(C)=C[C@H]1C[C@](C)(O)[C@@H]2[C@H]3CC[C@@H]4[C@@]5(C)CC[C@H](O[C@@H]6OC[C@H](O)[C@H](O[C@@H]7O[C@H](CO)[C@@H](O)[C@H](O)[C@H]7O[C@@H]7OC[C@@H](O)[C@H](O)[C@H]7O)[C@H]6O[C@@H]6O[C@@H](C)[C@H](O)[C@@H](O)[C@H]6O)C(C)(C)[C@@H]5CC[C@@]4(C)[C@@]34CO[C@@]2(C4)O1`, the Activity (AGS [1]) is reported as “Active”, the Activity (AGS [2]) is reported as “Active” and the Activity (AGS [3]) is reported as “Active”. The Activity (AGS [4]) was “Active”, the Activity (HCT-116 [5]) was “Active” and the Activity (AGS [6]) was “Active”. The Activity (HCT-116 [7]) was “inactive”, the Activity (HCT-116 [8]) was “Active” and the Activity (AGS [9]) was “inactive”. The Activity (AGS [10]) was “Active”, the Activity (AGS [11]) was “inactive” and the Activity (AGS [12]) was “inactive”. For the same compound, the Activity (AGS [13]) was “Active”, the Activity (AGS [14]) was “Active” and the Activity (AGS [15]) was “inactive”. For the same compound, the Activity (AGS [16]) was “inactive”, the Activity (AGS [17]) was “Active” and the Activity (AGS [18]) was “Dose-dependent effect”. The Activity (HCT-116 [19]) was “Active”, the Activity (Mus musculus) was “Non-toxic” and the Activity (HCT-116 [20]) was 60%. For the same compound, the Activity (HCT-116 [21]) was “Dose-dependent effect”, the Activity (HCT-116 [22]) was “Dose-dependent effect” and the Activity (AGS [23]) was 49.65%. For the same compound, the Activity (AGS [24]) was 8.29%, the Activity (AGS [25]) was 39.55% and the Activity (AGS [26]) was 28.85%. For the same compound, the Activity (HCT-116 [27]) was 5.1%, the Activity (HCT-116 [28]) was 0.67% and the Activity (HCT-116 [29]) was 1.67%. The Activity (HCT-116 [30]) was 2.64%, the Activity (AGS [31]) was 1.06% and the Activity (AGS [32]) was 12.44%. The Activity (HCT-116 [33]) was “Active”, the Activity (HCT-116 [34]) was “Active” and the Activity (AGS [35]) was “Active”. The Activity (AGS [36]) was “Active”, the Activity (HCT-116 [37]) was “Dose-dependent effect” and the IC50 (HCT-116 [37]; HCT-116, 24 h) was 114 µM. For the same compound, the Activity (AGS [38]) was “Dose-dependent effect” and the IC50 (AGS [38]) was 107 µM.
